Test results taken from patent US11084795B2, “CFTR regulators and methods of use thereof” (The Regents of the University of California, priority 2015, dated 2021).
pEC50: −log10 of the molar value. Entries after “also recorded” stand apart in the source; their conditions may differ.

How the values were obtained:
cellular cAMP = test: GloSensor cAMP assay in FRT cells; type: cell-based, rat; conditions: 1c at 10 μM
Protocol: Intracellular cAMP activity was measured using a GloSensor luminescence assay (Promega Corp., Madison, Wisconson, USA). FRT null cells were stably transfected with the pGloSensor cAMP plasmid and plated onto white 96-well microplates and grown to confluence. Cells were washed three times with PBS and incubated with 5 μM CFTRact-J027 for 10 min in the absence and presence of 100 nM forskolin. cAMP was assayed according to the manufacturer's instructions.
Intracellular cAMP activity was measured using a GloSensor luminescence assay (Promega Corp., Madison, Wis., USA). FRT cells stably transfected with the pGloSensor cAMP plasmid (Promega Corp.) were cultured in white 96-well microplates (Corning Costar) overnight. Cells were then washed three times with PBS and incubated with 5 μM test compound for 10 min in the absence and presence of 100 nM forskolin.
cAMP assay. Intracellular cAMP activity was measured using a GloSensor luminescence assay (Promega Corp., Madison, Wisconson, USA). FRT null cells were stably transfected with the pGloSensor cAMP plasmid and plated onto white 96-well microplates and grown to confluence. […]
cAMP and cytotoxicity assays. Intracellular cAMP activity was measured using a GloSensor luminescence assay (Promega Corp., Madison, Wis., USA). […]

TMEM16A = TMEM16A activity in FRT cells expressing YFP and TMEM16A; type: cell-based; conditions: 1c at 10 μM
[1] = test system: calcium-activated chloride channels in HT-29 cells; test: CaCC activity in HT-29 cells expressing YFP; type: cell-based; conditions: 1c at 10 μM
human wildtype CFTR [2] = molecular target: T1, human wildtype CFTR (Homo sapiens, UniProt P13569); test: Fluorescence plate reader assay of iodide influx in FRT cells co-expressing CFTR and YFP halide sensor
loperamide-treated mice = test: Loperamide-induced mouse model of constipation; conditions: 1c orally 1 h prior to loperamide, 3-h stool
human wildtype CFTR [3] = molecular target: T1, human wildtype CFTR; test: Short-circuit current (Isc) in FRT cells expressing human wild-type CFTR; conditions: read-out: EC50 for CFTR activation; FRT cells, wild-type CFTR, short-circuit current
[4] = In vitro metabolic stability in mouse liver microsomes; type: in vitro ADME; conditions: mouse hepatic microsomes, NADPH
Protocol: CFTRact-J027 (5 μM) was incubated for specified times at 37° C. with mouse liver microsomes (1 mg protein/ml; Sigma-Aldrich) in potassium phosphate buffer (100 mM) containing 1 mM NADPH, as described. The mixture was then chilled on ice, and 0.5 ml of ice-cold ethyl acetate was added. Samples were centrifuged for 15 min at 3000 rpm, the supernatant evaporated to dryness, and the residue was dissolved in 100 μL mobile phase (acetonitrile:water, 3:1) for LC/MS and assayed as described above.
In vitro metabolic stability. CFTRact-J027 (5 μM) was incubated for specified times at 37° C. with mouse liver microsomes (1 mg protein/ml; Sigma-Aldrich) in potassium phosphate buffer (100 mM) containing 1 mM NADPH, as described. The mixture was then chilled on ice, and 0.5 ml of ice-cold ethyl acetate was added. Samples were centrifuged for 15 min at 3000 rpm, the supernatant evaporated to dryness, and the residue was dissolved in 100 μL mobile phase (acetonitrile:water, 3:1) for LC/MS and assayed as described above.
In vitro metabolic stability. Test compound (at 5 μM) was incubated for specified times at 37° C. with mouse liver microsomes (1 mg protein/ml; Sigma-Aldrich, St. Louis, Mo.) in potassium phosphate buffer containing 1 mM NADPH, as described. Following ethyl acetate extraction, non-metabolized parent compound was assayed by LC/MS.

cytoplasmic calcium = test: Cytoplasmic calcium (Fluo-4) in FRT cells; type: cell-based, rat; conditions: 1c at 10 μM; ATP as calcium agonist
Protocol: FIGS. 23A-23D. In vitro characterization of compound 1c. FIG. 23A. Cellular cAMP in FRT cells in response to incubation for 10 min with […] 1c without or with 90 nM forskolin (fsk). Positive controls included fsk (100 nM and 20 pM) and fsk+IBMX (20 pM+100 pM) (mean±S.E.M., n=4). FIG. 23B. Cytoplasmic calcium measured by Fluo-4 fluorescence. FRT cells were pretreated for 5 min with 10 pM 1c (or control), with 100 pM ATP added as a calcium agonist as indicated. FIG. 23C. […] FIG. 23D.

T1 sequence (P13569 whole entry): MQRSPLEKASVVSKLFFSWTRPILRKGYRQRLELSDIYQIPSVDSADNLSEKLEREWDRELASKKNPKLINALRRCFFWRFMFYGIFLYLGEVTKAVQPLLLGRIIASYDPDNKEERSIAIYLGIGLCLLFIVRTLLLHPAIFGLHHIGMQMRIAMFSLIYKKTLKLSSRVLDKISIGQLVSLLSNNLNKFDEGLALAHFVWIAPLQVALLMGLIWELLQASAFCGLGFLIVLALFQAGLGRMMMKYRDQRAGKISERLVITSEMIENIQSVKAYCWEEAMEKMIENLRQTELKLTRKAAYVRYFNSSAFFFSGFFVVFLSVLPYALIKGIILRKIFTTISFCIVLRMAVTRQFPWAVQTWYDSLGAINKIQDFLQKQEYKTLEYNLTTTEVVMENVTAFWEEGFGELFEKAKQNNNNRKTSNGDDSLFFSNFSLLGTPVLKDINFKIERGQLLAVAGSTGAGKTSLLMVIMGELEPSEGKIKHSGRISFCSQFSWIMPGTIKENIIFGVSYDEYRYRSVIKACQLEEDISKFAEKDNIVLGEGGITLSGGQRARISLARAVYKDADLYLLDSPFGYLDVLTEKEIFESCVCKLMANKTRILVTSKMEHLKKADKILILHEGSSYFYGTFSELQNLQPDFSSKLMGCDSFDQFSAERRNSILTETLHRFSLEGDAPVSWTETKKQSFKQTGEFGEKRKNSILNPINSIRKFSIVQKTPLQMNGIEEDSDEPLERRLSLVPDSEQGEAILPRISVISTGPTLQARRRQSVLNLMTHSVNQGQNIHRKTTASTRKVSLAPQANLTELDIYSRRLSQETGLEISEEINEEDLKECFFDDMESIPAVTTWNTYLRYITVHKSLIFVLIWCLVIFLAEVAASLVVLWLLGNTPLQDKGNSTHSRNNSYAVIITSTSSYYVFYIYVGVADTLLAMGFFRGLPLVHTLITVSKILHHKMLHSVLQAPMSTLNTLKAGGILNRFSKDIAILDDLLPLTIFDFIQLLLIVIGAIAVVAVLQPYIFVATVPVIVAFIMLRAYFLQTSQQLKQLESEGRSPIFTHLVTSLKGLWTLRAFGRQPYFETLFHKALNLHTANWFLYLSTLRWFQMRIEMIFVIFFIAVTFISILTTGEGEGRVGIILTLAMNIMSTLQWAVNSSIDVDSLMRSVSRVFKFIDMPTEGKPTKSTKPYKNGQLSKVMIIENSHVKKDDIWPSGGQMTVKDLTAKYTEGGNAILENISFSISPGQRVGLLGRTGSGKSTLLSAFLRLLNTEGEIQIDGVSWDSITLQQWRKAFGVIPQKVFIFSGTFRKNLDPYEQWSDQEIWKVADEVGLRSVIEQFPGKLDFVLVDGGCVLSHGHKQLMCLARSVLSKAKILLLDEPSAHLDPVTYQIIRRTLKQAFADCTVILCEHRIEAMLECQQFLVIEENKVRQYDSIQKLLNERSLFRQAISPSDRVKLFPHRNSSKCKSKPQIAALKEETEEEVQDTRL

In the case of `O=c1c(-c2cccc([N+](=O)[O-])c2)nc2ccccc2n1Cc1ccccc1` [Compound 1c, 1-Benzyl-3-(3-nitrophenyl)quinoxalin-2(1H)-one], the “effect on cellular cAMP level” value (cellular cAMP) was “did not affect the cellular cAMP level”, the “activation or inhibition of TMEM16A” value (TMEM16A) was “no activation (iodide addition) or inhibition (iodide+ATP addition); also recorded: neither inhibited nor activated” and the “activation or inhibition of calcium-activated chloride channels in HT-29 cells” value [1] was “no activation (iodide addition) or inhibition (iodide+ATP addition); also recorded: neither inhibited nor activated”. The “increased potency compared to 4” value (human wildtype CFTR [2]; plate reader assay) was ~10 fold, the pEC50 (human wildtype CFTR [2]; read-out: EC50, variation in the 3-aryl ring, plate reader assay) was 8.05 and the pEC50 (human wildtype CFTR [2]; synthesized compounds, full dose-response study, 125 nM forskolin) was 8.05. For the same compound, the “stool weight, pellet number and hydration” value (loperamide-treated mice) was “fully normalized stool weight, pellet number and hydration”, the pEC50 (human wildtype CFTR [3]) was 7.68 and the “compound metabolized at 60 min” value [4] was < 40%. The cytoplasmic calcium (cytoplasmic calcium) was “nor did it elevate cytoplasmic calcium or inhibit the ATP-stimulated elevation in cytoplasmic calcium”.
